Our source for the inhibition values is ChEMBL document CHEMBL3132769, “Fragment growing to retain or alter the selectivity of anchored kinase hinge-binding fragments” (Medchemcomm, 2014).

For test [1], the target named is T1, Serine/threonine-protein kinase 3 (Homo sapiens) (UniProt Q13188).
T1 sequence (whole entry): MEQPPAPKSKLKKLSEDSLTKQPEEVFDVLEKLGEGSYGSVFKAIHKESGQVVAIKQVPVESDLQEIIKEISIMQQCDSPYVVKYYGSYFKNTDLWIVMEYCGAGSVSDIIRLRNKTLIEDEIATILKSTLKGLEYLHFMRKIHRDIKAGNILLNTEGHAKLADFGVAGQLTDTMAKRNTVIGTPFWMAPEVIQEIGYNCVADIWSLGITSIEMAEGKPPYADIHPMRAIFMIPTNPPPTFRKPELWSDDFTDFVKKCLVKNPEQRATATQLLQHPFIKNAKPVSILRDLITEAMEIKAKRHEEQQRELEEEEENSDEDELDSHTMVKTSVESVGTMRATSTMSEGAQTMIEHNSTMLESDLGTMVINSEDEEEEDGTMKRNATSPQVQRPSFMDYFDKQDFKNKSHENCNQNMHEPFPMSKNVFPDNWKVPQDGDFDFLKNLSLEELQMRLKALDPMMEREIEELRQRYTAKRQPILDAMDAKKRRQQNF
Description: Inhibition of human full length MST2 expressed in baculovirus assessed as substrate phosphorylation using fluorescence-labelled peptides as substrate at 0.1 uM after 90 mins by microfluidic peptide phosphorylation assay.

Test [2] has as its target T2, Testis-specific serine/threonine-protein kinase 1 (Homo sapiens) (UniProt Q9BXA7).
T2 sequence (whole entry): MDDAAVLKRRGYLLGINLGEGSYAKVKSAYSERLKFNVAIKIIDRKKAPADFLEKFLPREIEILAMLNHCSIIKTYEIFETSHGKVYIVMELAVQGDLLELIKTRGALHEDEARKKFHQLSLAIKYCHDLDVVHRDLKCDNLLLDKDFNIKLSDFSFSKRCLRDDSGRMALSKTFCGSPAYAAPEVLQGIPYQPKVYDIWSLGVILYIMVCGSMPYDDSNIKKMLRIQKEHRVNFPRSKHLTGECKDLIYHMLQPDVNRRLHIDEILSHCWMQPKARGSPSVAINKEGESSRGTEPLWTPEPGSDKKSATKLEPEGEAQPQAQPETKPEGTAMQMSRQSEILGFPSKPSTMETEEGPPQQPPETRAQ
The note with it: 0.1 uM.
Description: Inhibition of human full length TSSK1 expressed in baculovirus assessed as substrate phosphorylation using fluorescence-labelled peptides as substrate at 0.1 uM after 90 mins by microfluidic peptide phosphorylation assay

The target of test [3] is T3, Interleukin-1 receptor-associated kinase 4 (Homo sapiens) (UniProt Q9NWZ3).
T3 sequence (whole entry): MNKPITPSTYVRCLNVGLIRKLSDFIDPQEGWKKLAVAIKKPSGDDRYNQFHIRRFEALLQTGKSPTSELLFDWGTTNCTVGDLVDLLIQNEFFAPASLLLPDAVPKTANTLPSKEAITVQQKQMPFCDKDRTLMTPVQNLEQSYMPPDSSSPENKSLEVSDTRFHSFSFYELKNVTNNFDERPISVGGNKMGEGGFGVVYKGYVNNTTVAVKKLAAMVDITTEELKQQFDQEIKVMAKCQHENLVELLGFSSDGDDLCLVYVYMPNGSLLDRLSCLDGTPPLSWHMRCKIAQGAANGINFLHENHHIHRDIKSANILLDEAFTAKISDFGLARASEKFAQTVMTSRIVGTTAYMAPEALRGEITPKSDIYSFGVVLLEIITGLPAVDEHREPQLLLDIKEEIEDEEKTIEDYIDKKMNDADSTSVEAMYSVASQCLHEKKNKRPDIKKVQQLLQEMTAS
The experiment in a line: Inhibition of human IRAK4 catalytic domain expressed in baculovirus assessed as substrate phosphorylation using fluorescence-labelled peptides as substrate at 0.06 uM after 90 mins by microfluidic peptide phosphorylation assay.

The target of test [4] is T4, Serine/threonine-protein kinase Sgk1 (Homo sapiens) (UniProt O00141).
T4 sequence (whole entry): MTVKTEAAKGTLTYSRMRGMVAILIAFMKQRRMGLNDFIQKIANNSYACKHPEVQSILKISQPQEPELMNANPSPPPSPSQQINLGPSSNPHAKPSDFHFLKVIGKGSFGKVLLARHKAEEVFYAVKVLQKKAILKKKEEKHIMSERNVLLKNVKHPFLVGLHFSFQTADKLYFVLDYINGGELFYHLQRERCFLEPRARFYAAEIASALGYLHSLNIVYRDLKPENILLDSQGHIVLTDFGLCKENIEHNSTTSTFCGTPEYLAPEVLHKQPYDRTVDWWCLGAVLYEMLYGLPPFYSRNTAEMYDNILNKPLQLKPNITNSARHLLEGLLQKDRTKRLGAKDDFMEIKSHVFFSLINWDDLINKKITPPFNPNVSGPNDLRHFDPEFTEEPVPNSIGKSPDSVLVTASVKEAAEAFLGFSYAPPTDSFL
Description: Inhibition of human truncated SGK1 expressed in baculovirus assessed as substrate phosphorylation using fluorescence-labelled peptides as substrate at 95 uM after 90 mins by microfluidic peptide phosphorylation assay.

The target in test [5] is T5, Serine/threonine-protein kinase DCLK2 (Homo sapiens) (UniProt Q8N568).
T5 sequence (whole entry): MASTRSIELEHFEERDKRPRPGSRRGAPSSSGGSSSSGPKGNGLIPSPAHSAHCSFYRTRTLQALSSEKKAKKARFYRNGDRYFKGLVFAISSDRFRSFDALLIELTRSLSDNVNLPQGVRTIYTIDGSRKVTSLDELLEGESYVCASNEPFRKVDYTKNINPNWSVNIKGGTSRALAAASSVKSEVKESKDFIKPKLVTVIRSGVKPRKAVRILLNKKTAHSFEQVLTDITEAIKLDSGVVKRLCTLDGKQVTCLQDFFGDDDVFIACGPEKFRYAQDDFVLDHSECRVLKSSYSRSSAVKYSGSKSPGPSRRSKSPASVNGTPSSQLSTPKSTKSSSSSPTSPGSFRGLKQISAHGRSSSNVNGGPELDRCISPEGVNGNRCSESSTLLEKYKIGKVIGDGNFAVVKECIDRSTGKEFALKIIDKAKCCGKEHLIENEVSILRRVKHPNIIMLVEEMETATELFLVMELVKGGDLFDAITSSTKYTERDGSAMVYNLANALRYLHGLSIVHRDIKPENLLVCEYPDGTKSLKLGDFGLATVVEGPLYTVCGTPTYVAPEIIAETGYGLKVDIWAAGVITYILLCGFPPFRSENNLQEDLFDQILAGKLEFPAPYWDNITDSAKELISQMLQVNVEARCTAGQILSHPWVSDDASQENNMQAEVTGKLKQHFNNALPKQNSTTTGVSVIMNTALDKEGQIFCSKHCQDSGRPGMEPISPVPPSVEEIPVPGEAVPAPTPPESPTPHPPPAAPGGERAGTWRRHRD
Description: Inhibition of human full length DCAMKL2 expressed in baculovirus assessed as substrate phosphorylation using fluorescence-labelled peptides as substrate at 420 uM after 90 mins by microfluidic peptide phosphorylation assay.

Each structure is given as a SMILES string.

On to `C[C@H](CN(C)C)Oc1nc(Nc2cc3cccc(Cl)c3cn2)cnc1C#N`, for which the inhibition in test [1] turned out to be 11.5%; in test [2], 0%. Regarding `NC1(Cc2ccc(Cl)cc2)CCN(c2ncnc3[nH]ccc23)CC1`, the inhibition in test [3] came to 0%. Take `NCCc1ccc(-c2ncnc3[nH]cnc23)cc1`: the inhibition in test [4] turned out to be 52.5%.

On to `c1nc(N2CCOCC2)c2nc[nH]c2n1`, for which the inhibition in test [5] is 41.5%.
